According to patent US20210220434A1, “Treatment of Vascular Occlusion by Activation of Notch Signaling” (The Regents of the University of California, priority 2018, published 2021):

Key:
[1] = test system: distal middle cerebral artery occlusion (dMCAO) mouse model; test: Collateral artery size and function after dMCAO stroke induction; format: in vivo
Excerpt: (§1) FIGS. 6A, 6B, and 6C. […] FIG. 6A depicts the time course of the experiment, with recombinant DLL4 administered one day prior to and for seven days following dMCAO stroke induction. FIG. 6B: Collateral artery diameter, velocity, and flux, and the area between the vertical lines denotes the period of DLL4 administration. Triangles: rDLL4, Circles: Control. Control, n=5, Treated; n=5. *P<0.05, **P<0.01. FIG. 6C depicts ladder test results for mice are subject to behavior test at 15 to 17 days after experimental stroke, the scores being the average of the two measurements.
(§2) Collateral artery size and function was assessed at seven and fourteen days following injury.

[2] = test system: distal middle cerebral artery occlusion (dMCAO) mouse model; test: Ladder test of neurological function after dMCAO; format: in vivo
Excerpt: as §1, §2

[3] = wild type C57BL/6J mice, dMCAO, daily iv for eight days from the day before dMCAO, day 7, vs control

Substance: rDLL4: recombinant mouse DLL4 (Delta-like ligand 4), a Notch activating ligand, given intravenously
- collateral artery size and function (diameter, velocity, flux) ([1]; day 14 after dMCAO, 7 days after administration was halted, vs control): Significant improvements in the treated mice persisted
- cerebral blood flow ([1]; following dMCAO, FIG. 6 legend): preserves cerebral blood flow
- growth of collaterals ([1]; following dMCAO, FIG. 6 legend): improves growth of collaterals
- collateral artery diameter [1, 3]: significantly improved
- collateral artery flux [1, 3]: significantly improved
- collateral artery velocity [1, 3]: significantly improved
- neurological function, ladder test ([2]; day 15 and 17 after dMCAO, vs control): higher in the treated mice
- neurological function ([2]; following dMCAO, FIG. 6 legend): improving neurological function
